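A five-concentration, 48-hour dose response in 96-well plates underlies each endpoint, interpolated linearly between surrounding concentrations. At the GI50, growth is halved.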 Active and inactive are the calls of the source. No stated cut-off is given here; in the data, active = GI50 up to about 1.1 µM and inactive = higher.
Key:
Assay in all cases: NCI tumour cell line growth inhibition, 48 h
Hs-578T = tested on: Hs-578T
SK-MEL-28 = tested on: SK-MEL-28
ACHN = tested on: ACHN
BT-549 = tested on: BT-549
OVCAR-3 = tested on: OVCAR-3
T47D = tested on: T47D
UO-31 = tested on: UO-31
SK-OV-3 = tested on: SK-OV-3
COLO 205 = tested on: COLO 205
SN12C = tested on: SN12C
SR = tested on: SR
MDA-MB-435 = tested on: MDA-MB-435
PC-3 = tested on: PC-3
MDA-N = tested on: MDA-N
RXF 393 = tested on: RXF 393
HL-60 = tested on: HL-60

Measured: GI50

O=[N+]([O-])c1ccc2[nH]c(-c3ccc(Cl)cc3)nc2c1
inactive: Hs-578T 25.5 µM | SK-MEL-28 39 µM | ACHN 26.8 µM | BT-549 29.7 µM | OVCAR-3 30.8 µM | T47D 24.6 µM | UO-31 23.9 µM | SK-OV-3 24 µM | COLO 205 16.7 µM | SN12C 29.7 µM | SR 26.3 µM | MDA-MB-435 23.6 µM | PC-3 21.4 µM | MDA-N 24 µM

O=C(O)c1ccccc1C1c2ccccc2Oc2ccccc21
inactive: SK-MEL-28 > 100 µM | ACHN 34.6 µM | BT-549 72.3 µM | OVCAR-3 27.9 µM | T47D 71.9 µM | UO-31 65.8 µM | RXF 393 69.5 µM | HL-60 39 µM | SN12C 46 µM | SR 41.9 µM | MDA-MB-435 52.4 µM | PC-3 65.9 µM | MDA-N 58.6 µM

CN(C)CCCNc1ncnc2[nH]cnc12
inactive: Hs-578T > 100 µM | SK-MEL-28 > 100 µM | ACHN > 100 µM | BT-549 > 100 µM | OVCAR-3 > 100 µM | T47D > 100 µM | UO-31 > 100 µM | SK-OV-3 > 100 µM | RXF 393 > 100 µM | COLO 205 > 100 µM | SN12C > 100 µM | MDA-MB-435 > 100 µM | PC-3 > 100 µM | MDA-N > 100 µM

NNc1nnc(-c2nnc(NN)o2)o1
inactive: Hs-578T > 10 µM | SK-MEL-28 > 10 µM | ACHN > 10 µM | BT-549 > 10 µM | OVCAR-3 > 10 µM | T47D > 10 µM | UO-31 > 10 µM | RXF 393 > 10 µM | COLO 205 > 10 µM | HL-60 > 10 µM | SN12C > 10 µM | SR > 10 µM | MDA-MB-435 > 10 µM | PC-3 > 10 µM | MDA-N > 10 µM

CCOC(=O)NC(=S)NN(C)C1=NCC(C)(C)S1
inactive: Hs-578T > 100 µM | SK-MEL-28 > 100 µM | ACHN > 100 µM | BT-549 > 100 µM | OVCAR-3 > 100 µM | T47D > 100 µM | UO-31 > 100 µM | SK-OV-3 > 100 µM | RXF 393 > 100 µM | COLO 205 > 100 µM | HL-60 > 100 µM | SN12C > 100 µM | SR > 100 µM | MDA-MB-435 > 100 µM | PC-3 > 100 µM | MDA-N > 100 µM

C[C@H]1[C@H](C)N(Cc2ccccc2)P(=O)(C(O)/C=C/c2ccccc2)N1Cc1ccccc1 (some centres undefined)
inactive: Hs-578T 4.79 µM | SK-MEL-28 8.51 µM | ACHN 8.47 µM | BT-549 12 µM | T47D 6.27 µM | UO-31 5.27 µM | SK-OV-3 9.68 µM | RXF 393 6.24 µM | COLO 205 6.64 µM | SN12C 4.6 µM | SR 6.55 µM | MDA-MB-435 4.33 µM | PC-3 5.37 µM | MDA-N 5.55 µM

CC(C)CCC[C@@H](C)[C@H]1CC[C@H]2C3=C[C@H](OS(=O)(=O)O)[C@@]4(O)C[C@@H](O)CC[C@]4(C)[C@@]3(O)CC[C@]12C
inactive: SK-MEL-28 > 100 µM | ACHN > 100 µM | BT-549 > 100 µM | OVCAR-3 > 100 µM | T47D 83.6 µM | UO-31 > 100 µM | SK-OV-3 > 100 µM | RXF 393 > 100 µM | COLO 205 > 100 µM | SN12C > 100 µM | SR 68.5 µM | MDA-MB-435 > 100 µM | PC-3 > 100 µM | MDA-N > 100 µM

Cn1c(=O)c2c(nc(NCCCCl)n2CC(=O)NCCCCl)n(C)c1=O
inactive: Hs-578T > 100 µM | SK-MEL-28 > 100 µM | ACHN > 100 µM | BT-549 > 100 µM | OVCAR-3 > 100 µM | T47D > 100 µM | UO-31 > 100 µM | SK-OV-3 > 100 µM | RXF 393 > 100 µM | COLO 205 > 100 µM | HL-60 > 100 µM | SN12C > 100 µM | MDA-MB-435 > 100 µM | PC-3 > 100 µM | MDA-N > 100 µM

COC(=O)C1=C(C(=O)OC)C(OO)(c2ccccc2)OC1=O (centres undefined)
inactive: SK-MEL-28 > 100 µM | ACHN > 100 µM | BT-549 > 100 µM | OVCAR-3 > 100 µM | T47D > 100 µM | UO-31 > 100 µM | SK-OV-3 > 100 µM | RXF 393 > 100 µM | COLO 205 > 100 µM | HL-60 > 100 µM | SN12C 86.3 µM | SR 38.5 µM | MDA-MB-435 > 100 µM | PC-3 38.6 µM | MDA-N 91.4 µM

O=C1NC(N2CCCC(CO)C2)=N/C1=C\c1cccs1 (centres undefined)
inactive: Hs-578T > 100 µM | SK-MEL-28 > 100 µM | ACHN > 100 µM | BT-549 > 100 µM | OVCAR-3 > 100 µM | T47D > 100 µM | UO-31 > 100 µM | SK-OV-3 > 100 µM | RXF 393 > 100 µM | COLO 205 > 100 µM | HL-60 > 100 µM | SN12C > 100 µM | SR > 100 µM | MDA-MB-435 > 100 µM | PC-3 > 100 µM | MDA-N > 100 µM

CC1CCC(O)(C(C)(C(=O)O)c2ccccc2)CC1 (centres undefined)
inactive: Hs-578T 74 µM | SK-MEL-28 > 100 µM | ACHN > 100 µM | BT-549 > 100 µM | OVCAR-3 > 100 µM | T47D > 100 µM | UO-31 > 100 µM | RXF 393 > 100 µM | HL-60 > 100 µM | SN12C > 100 µM | MDA-MB-435 > 100 µM | PC-3 > 100 µM | MDA-N > 100 µM

CCOC(=O)c1c(N2CCCC2)[nH]c(=O)c(C(c2ccc(N(C)C)cc2)c2c(O)c(C(=O)OCC)c(N3CCCC3)[nH]c2=O)c1O
inactive: Hs-578T > 100 µM | SK-MEL-28 > 100 µM | ACHN > 100 µM | BT-549 30.4 µM | OVCAR-3 > 100 µM | T47D > 100 µM | UO-31 > 100 µM | SK-OV-3 > 100 µM | RXF 393 > 100 µM | COLO 205 > 100 µM | SN12C > 100 µM | SR > 100 µM | MDA-MB-435 > 100 µM | PC-3 > 100 µM | MDA-N > 100 µM

CCOC(=O)CCCN
inactive: Hs-578T > 100 µM | SK-MEL-28 > 100 µM | ACHN > 100 µM | BT-549 > 100 µM | OVCAR-3 > 100 µM | T47D > 100 µM | UO-31 > 100 µM | SK-OV-3 > 100 µM | RXF 393 > 100 µM | COLO 205 > 100 µM | HL-60 > 100 µM | SN12C > 100 µM | MDA-MB-435 > 100 µM | PC-3 > 100 µM | MDA-N > 100 µM
